According to patent US6916846B2, “Coumermycin analogs as chemical dimerizers of chimeric proteins” (Merck & Co. Inc., priority 2000, dated 2005):
Where two headings read alike, the source gives them in different places.

Tests used:
[1] = tested on: STAT5b-GyrB fusion proteins
Procedure: To evaluate the effectiveness of the analogs of the present invention to act as chemical dimerizers of chimeric proteins, a BAF cell proliferation assay was performed.
BAF Cell Proliferation Assay
We have transfected BAF Cells with the human IL2 Receptor β chain. These transfected cells respond to human IL-2 by increasing their rate of cellular proliferation. This can be assayed by measuring the amount of tritiated thymidine that these cells incorporate into their DNA. One of the signaling proteins activated by IL-2 is the transcription factor STAT5b. This activation of STAT5b is responsible, in part, for the growth-promoting effects of IL-2.
STAT5b is activated by dimerization, an event that is dependent on its phosphorylation and which requires interaction of STAT5b with a ligand bound activated receptor. We can mimic this activation of STAT5b by transfecting BAF cells with a fusion protein consisting of the GyrB domain (the24 kDa amino-terminal fragment of bacterial DNA gyrase, amino acids 2-220) fused to the carboxy-terminus of STAT5b. Addition of the symmetrically dimeric antibiotic coumermycin artificially forces the dimerization of STAT5b-GyrB fusion proteins and results in an increased rate of cell growth that can be measured by the cell's ability to incorporate thymidine. This provides an assay to determine the ability of coumermycin analogs to promote dimerization of STAT5b-GyrB fusion proteins.
The assay is run as follows: BAF cells transfected with the human IL-2 receptor β chain and STAT5b-GyrB are washed twice in phosphate-buffered saline. They are then re-suspended in BAF cell media that lacks IL-2 and placed in a 96-well plate. Increasing amounts of coumermycin, or coumermycin analogs are then added to different wells in a 96-well plate and the cells are incubated overnight. Twenty-four hours later the cell media is spiked with tritiated thymidine and the cells are incubated for an additional 16 hours. The cells are subsequently harvested with a Wallac cell harvester and the amount of tritiated thymidine incorporated is measured using a β scintillation counter.
Set up for BAF proliferation assay was as follows: Spin down cells and wash one time in PBS. Resuspended in BAF cell media without cytokine at 2×10^5 cells/ml. added 100 μl/well or 2×10^4 cells. The compounds were prepared at 2 mg/ml (equivalent to 1.8 nM±5%). Plates were set up so that each condition equaled 1 row of 12 (n=number of wells/row=12). DMSO being utilized as an initial control Compound 5 was prepared in concentrations of 1.6, 16, 163, 450, and 900 nM, and 1.8 μM in DMSO, and as a second control, IL-2 growth factor was added to coumermycin. Two novenamine anologs, Comparative Compounds (CCmpd) 1 and 2, below were also use in this example as control.
The compounds were re-suspended in dimethylsulfoxide (DMSO) at a concentration of 2 mg/ml. […] Next, the cells were washed 2 times with PBS. The re-suspended cells were present at a concentration of 1×10^5 cells /ml in BAF media (RPMI, 10% FCS (fetal calf serum), 1% NEAA (non-essential amino acid), 1% L-G-lu, P/S and Hepes) without IL-2, added 100 μl to well (equal to 1×10^4 cells/well).
The compounds were prepared in as follows: DMSO was used as a control; each of the 5 compounds were combined with DMSO at concentrations of 1.8 μM, 900 nM, 450 nM, 90 nM 9 nM, and 900 nM. As a second control, coumermycin in IL-2 was utilized. Each solution at the aforementioned concentration condition, along with BAF cells, was placed in 1 row (12 wells) of a 96 well plate. Thereafter, 100 μL of compound (twice the concentration) was added to the wells.

[2] = tested on: STAT5b-GyrB fusion proteins; assay: Inhibition assay in BAF cells, all wells with 90 nM coumermycin; format: cell-based, murine; set-up: unit not given here; conditions: Table 6
Procedure: An inhibition assay was also conducted for Compounds 1 and 2. For this assay, all wells contained a DMSO concentration of 90 nM of coumermycin. Compounds 1 and 2 were added at concentrations of 1.8 μM, 900 nM, 90 nM and 9 nM. The conditions of the assay were identical to those referenced early in this example, except that one-third of the amount of 3-H thymidine was used.

[3] = Table 2, Example 1, stimulus 1.6 nM, 2×10^4 cells/well
[4] = Table 2, Example 1, stimulus 16.3 nM
[5] = Table 2, Example 1, stimulus 163 nM
[6] = Table 2, Example 1, stimulus 450 nM
[7] = Table 2, Example 1, stimulus 900 nM
[8] = Table 2, Example 1, stimulus 1.8 μM
[9] = Cou. 90 nM plus inhibitor 90 nM
[10] = Cou. 90 nM plus inhibitor 900 nM
[11] = Cou. 90 nM plus inhibitor 1800 nM
[12] = Table 3, Example 2, 900 pM, 1×10^4 cells/well

| SMILES | Prolif. [1, 3] | Prolif. [1, 4] | Prolif. [1, 5] | Prolif. [1, 6] | Prolif. [1, 7] | Prolif. [1, 8] | Prolif. (cpm) ([1]; Table 7, Example 5, 900 pM) | Prolif. (cpm) ([1]; Table 7, Example 5, 9 nM) | Prolif. (cpm) ([1]; Table 7, Example 5, 90 nM) | Prolif. (cpm) ([1]; Table 7, Example 5, 450 nM) | Prolif. (cpm) ([1]; Table 7, Example 5, 900 nM) | Prolif. (cpm) ([1]; Table 7, Example 5, 1.8 μM) | Prolif. (cpm) [1, 12] | Prolif. (cpm) ([1]; Table 3, Example 2, 9 nM) | Prolif. (cpm) ([1]; Table 3, Example 2, 90 nM) | Prolif. (cpm) ([1]; Table 3, Example 2, 450 nM) | Prolif. (cpm) ([1]; Table 3, Example 2, 900 nM) | Prolif. (cpm) ([1]; Table 3, Example 2, 1.8 μM) | also measured |
| --- | --- | --- | --- | --- | --- | --- | --- | --- | --- | --- | --- | --- | --- | --- | --- | --- | --- | --- | --- |
| COC1C(OC(N)=O)C(O)C(Oc2ccc3c(O)c(NC(=O)COCCOCC(=O)Nc4c(O)c5ccc(OC6OC(C)(C)C(OC)C(OC(N)=O)C6O)c(C)c5oc4=O)c(=O)oc3c2C)OC1(C)C (stereo not drawn) [CCmpd 1, reference compound] | 15741 | 14691 | 13628 | 12465 | 11935 | 11057 | – | – | – | – | – | – | – | – | – | – | – | – | – |
| COC1C(OC(N)=O)C(O)C(Oc2ccc3c(O)c(NC(=O)COCCOCCOCC(=O)Nc4c(O)c5ccc(OC6OC(C)(C)C(OC)C(OC(N)=O)C6O)c(C)c5oc4=O)c(=O)oc3c2C)OC1(C)C (stereo not drawn) [CCmpd 2, reference compound] | 14761 | 14459 | 14516 | 13568 | 12281 | 11676 | – | – | – | – | – | – | – | – | – | – | – | – | – |
| COC1C(OC(N)=O)C(O)C(Oc2ccc3c(O)c(NC(=O)c4cc(=O)cc(C(=O)Nc5c(O)c6ccc(OC7OC(C)(C)C(OC)C(OC(N)=O)C7O)c(C)c6oc5=O)o4)c(=O)oc3c2C)OC1(C)C (stereo not drawn) [CCmpd 3, reference compound] | – | – | – | – | – | – | 32299 cpm | 33921 cpm | 33671 cpm | 33712 cpm | 31968 cpm | 28434 cpm | – | – | – | – | – | – | – |
| COC1C(OC(N)=O)C(O)C(Oc2ccc3c(O)c(NC(=O)c4ccc(Oc5ccc(C(=O)Nc6c(O)c7ccc(OC8OC(C)(C)C(OC)C(OC(N)=O)C8O)c(C)c7oc6=O)cc5)cc4)c(=O)oc3c2C)OC1(C)C (stereo not drawn) [CCmpd 4, reference compound] | – | – | – | – | – | – | 35624 cpm | 35985 cpm | 36764 cpm | 36763 cpm | 35379 cpm | 31918 cpm | – | – | – | – | – | – | – |
| COC1C(OC(=O)c2ccc(C)[nH]2)C(O)C(Oc2ccc3c(O)c(NC(=O)c4cc(=O)cc(C(=O)Nc5c(O)c6ccc(OC7OC(C)(C)C(OC)C(OC(=O)c8ccc(C)[nH]8)C7O)c(C)c6oc5=O)o4)c(=O)oc3c2C)OC1(C)C (stereo not drawn) [Cmpd 1] | – | – | – | – | – | – | 31865 cpm | 34279 cpm | 33933 cpm | 35212 cpm | 33301 cpm | 31029 cpm | – | – | – | – | – | – | Prolif. ([1]; Table 4, Example 3, 900 pM): 7156; Prolif. ([1]; Table 4, Example 3, 9 nM): 7653; Prolif. ([1]; Table 4, Example 3, 90 nM): 7487; Prolif. ([1]; Table 4, Example 3, 450 nM): 7209; Prolif. ([1]; Table 4, Example 3, 900 nM): 7092; Prolif. ([1]; Table 4, Example 3, 1.8 μM): 6397; Prolif. ([2]; Cou. 90 nM plus inhibitor 9 nM): 7713; Prolif. [2, 9]: 7683; Prolif. [2, 10]: 7597; Prolif. [2, 11]: 7271 |
| COC1C(OC(=O)c2ccc(C)[nH]2)C(O)C(Oc2ccc3c(O)c(NC(=O)c4ccc(Oc5ccc(C(=O)Nc6c(O)c7ccc(OC8OC(C)(C)C(OC)C(OC(=O)c9ccc(C)[nH]9)C8O)c(C)c7oc6=O)cc5)cc4)c(=O)oc3c2C)OC1(C)C (stereo not drawn) [Cmpd 2] | – | – | – | – | – | – | 36052 cpm | 38236 cpm | 42674 cpm | 47023 cpm | 46989 cpm | 46345 cpm | – | – | – | – | – | – | Prolif. (cpm) ([1]; Table 5, Example 4, 900 pM): 6014 cpm; Prolif. (cpm) ([1]; Table 5, Example 4, 9 nM): 6031 cpm; Prolif. (cpm) ([1]; Table 5, Example 4, 90 nM): 6623 cpm; Prolif. (cpm) ([1]; Table 5, Example 4, 450 nM): 7513 cpm; Prolif. (cpm) ([1]; Table 5, Example 4, 900 nM): 7798 cpm; Prolif. (cpm) ([1]; Table 5, Example 4, 1.8 μM): 7825 cpm; Prolif. ([2]; Cou. 90 nM plus inhibitor 9 nM): 7654; Prolif. [2, 9]: 7316; Prolif. [2, 10]: 8068; Prolif. [2, 11]: 8165 |
| COC1C(OC(=O)c2ccc(C)[nH]2)C(O)C(Oc2ccc3c(O)c(NC(=O)c4ccc(C(=O)Nc5c(O)c6ccc(OC7OC(C)(C)C(OC)C(OC(=O)c8ccc(C)[nH]8)C7O)c(C)c6oc5=O)nc4)c(=O)oc3c2C)OC1(C)C (stereo not drawn) [Cmpd 3] | – | – | – | – | – | – | – | – | – | – | – | – | 16313 cpm | 16767 cpm | 19920 cpm | 22221 cpm | 22824 cpm | 21389 cpm | – |
| COC1C(OC(=O)c2ccc(C)[nH]2)C(O)C(Oc2ccc3c(O)c(NC(=O)c4cncc(C(=O)Nc5c(O)c6ccc(OC7OC(C)(C)C(OC)C(OC(=O)c8ccc(C)[nH]8)C7O)c(C)c6oc5=O)c4)c(=O)oc3c2C)OC1(C)C (stereo not drawn) [Cmpd 4] | – | – | – | – | – | – | – | – | – | – | – | – | 20204 cpm | 19290 cpm | 19731 cpm | 20726 cpm | 22817 cpm | 23135 cpm | – |
| COC1C(OC(=O)c2ccc(C)[nH]2)C(O)C(Oc2ccc3c(O)c(NC(=O)COCCOCCOCC(=O)Nc4c(O)c5ccc(OC6OC(C)(C)C(OC)C(OC(=O)c7ccc(C)[nH]7)C6O)c(C)c5oc4=O)c(=O)oc3c2C)OC1(C)C (stereo not drawn) [Cmpd 5] | 15270 | 14277 | 14139 | 12732 | 12315 | 11751 | – | – | – | – | – | – | – | – | – | – | – | – | – |
| COC1C(OC(=O)c2ccc(C)[nH]2)C(O)C(Oc2ccc3c(O)c(NC(=O)COCCOCC(=O)Nc4c(O)c5ccc(OC6OC(C)(C)C(OC)C(OC(=O)c7ccc(C)[nH]7)C6O)c(C)c5oc4=O)c(=O)oc3c2C)OC1(C)C (stereo not drawn) [Cmpd 6] | 14954 | 14710 | 13351 | 12190 | 12872 | 10832 | – | – | – | – | – | – | – | – | – | – | – | – | – |
| COC1C(OC(=O)c2ccc(C)[nH]2)C(O)C(Oc2ccc3c(O)c(NC(=O)c4cc(C(=O)Nc5c(O)c6ccc(OC7OC(C)(C)C(OC)C(OC(=O)c8ccc(C)[nH]8)C7O)c(C)c6oc5=O)[nH]n4)c(=O)oc3c2C)OC1(C)C (stereo not drawn) [Cmpd 7] | – | – | – | – | – | – | – | – | – | – | – | – | 16520 cpm | 16599 cpm | 17690 cpm | 20553 cpm | 20619 cpm | 20207 cpm | – |
| COC1C(OC(=O)c2ccc(C)[nH]2)C(O)C(Oc2ccc3c(O)c(NC(=O)c4ccc(C(=O)Nc5c(O)c6ccc(OC7OC(C)(C)C(OC)C(OC(=O)c8ccc(C)[nH]8)C7O)c(C)c6oc5=O)cc4)c(=O)oc3c2C)OC1(C)C (stereo not drawn) [Cmpd 8] | – | – | – | – | – | – | – | – | – | – | – | – | 17973 cpm | 19377 cpm | 20715 cpm | 22936 cpm | 23858 cpm | 22772 cpm | – |
| COC1C(OC(=O)c2ccc(C)[nH]2)C(O)C(Oc2ccc3c(O)c(NC(=O)c4ccc(C(=O)Nc5c(O)c6ccc(OC7OC(C)(C)C(OC)C(OC(=O)c8ccc(C)[nH]8)C7O)c(C)c6oc5=O)s4)c(=O)oc3c2C)OC1(C)C (stereo not drawn) [Cmpd 9] | – | – | – | – | – | – | – | – | – | – | – | – | 16826 cpm | 18126 cpm | 19177 cpm | 20889 cpm | 22210 cpm | 20367 cpm | – |
| COC1C(OC(=O)c2ccc(C)[nH]2)C(O)C(Oc2ccc3c(O)c(NC(=O)c4c[nH]c(C(=O)Nc5c(O)c6ccc(OC7OC(C)(C)C(OC)C(OC(=O)c8ccc(C)[nH]8)C7O)c(C)c6oc5=O)c4C)c(=O)oc3c2C)OC1(C)C (stereo not drawn) [Cou., coumermycin] | 16137 | 16261 | 16836 | 18842 | 21057 | 23199 | 36503 cpm | 44455 cpm | 51248 cpm | 60293 cpm | 64831 cpm | 68728 cpm | 18071 cpm | 20551 cpm | 25219 cpm | 27515 cpm | 30752 cpm | 30664 cpm | Prolif. ([1]; Table 4, Example 3, 900 pM): 7422; Prolif. ([1]; Table 4, Example 3, 9 nM): 8792; Prolif. ([1]; Table 4, Example 3, 90 nM): 9860; Prolif. ([1]; Table 4, Example 3, 450 nM): 10832; Prolif. ([1]; Table 4, Example 3, 900 nM): 11470; Prolif. ([1]; Table 4, Example 3, 1.8 μM): 12308; Prolif. (cpm) ([1]; Table 5, Example 4, 900 pM): 6063 cpm; Prolif. (cpm) ([1]; Table 5, Example 4, 9 nM): 6750 cpm; Prolif. (cpm) ([1]; Table 5, Example 4, 90 nM): 7595 cpm; Prolif. (cpm) ([1]; Table 5, Example 4, 450 nM): 8457 cpm; Prolif. (cpm) ([1]; Table 5, Example 4, 900 nM): 8636 cpm; Prolif. (cpm) ([1]; Table 5, Example 4, 1.8 μM): 8610 cpm; Prolif. ([2]; Cou. 90 nM with DMSO in place of inhibitor): 7595 |
